Measurements reported in the supplement of paper PMC10307832.

Legend:
Test in all cases: relative viability (nuclei count vs DMSO), 5 days (fraction); higher = more cells survive
A-427 = test system: A-427
In short: (§1)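 For relative viability, nuclei counts in treated wells were divided by those in vehicle wells. Lung cancer cell lines had been pin-tool dosed in 1536-well plates the day after seeding and cultured for 5 days, then fixed and stained in one step (final 0.05% Triton X-100, 1% formaldehyde, 1 ug/ml Hoechst) and imaged at 4×. Doses were one drug alone or a fixed anchor-drug dose plus five library-drug doses (not always all listed) in √10 steps, and values are duplicate-plate medians.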

ChaGo-K-1 = test system: ChaGo-K-1
In short: as §1

EKVX = test system: EKVX
In short: as §1

EMC-BAC-2 = test system: EMC-BAC-2
In short: as §1

H3255 = test system: H3255
In short: as §1

HCC-366 = test system: HCC-366
In short: as §1

LK-2 = test system: LK-2
In short: as §1

LOU-NH91 = test system: LOU-NH91
In short: as §1

NCI-H1666 = test system: NCI-H1666
In short: as §1

NCI-H1734 = test system: NCI-H1734
In short: as §1

NCI-H1755 = test system: NCI-H1755
In short: as §1

NCI-H1975 = test system: NCI-H1975
In short: as §1

NCI-H2170 = test system: NCI-H2170
In short: as §1

NCI-H23 = test system: NCI-H23
In short: as §1

NCI-H441 = test system: NCI-H441
In short: as §1

NCI-H596 = test system: NCI-H596
In short: as §1

PC-3 [JPC-3] = test system: PC-3 [JPC-3]
In short: as §1

SW 900 = test system: SW 900
In short: as §1

`CC(=O)O[C@@]12CO[C@@H]1C[C@H](O)[C@@]1(C)C(=O)[C@H](O)C3=C(C)[C@@H](OC(=O)[C@H](O)[C@@H](NC(=O)OC(C)(C)C)c4ccccc4)C[C@@](O)([C@@H](OC(=O)c4ccccc4)[C@H]21)C3(C)C` [Docetaxel] + NC(=O)Nc1cc(-c2cccc(F)c2)sc1C(=O)N[C@H]1CCCNC1 [AZD7762] (partner 0.2 µM) gave a relative viability (A-427; first compound 0.0002 µM) of 0.729, a relative viability (A-427; first compound 0.000632 µM) of 0.768 and a relative viability (A-427; first compound 0.002 µM) of 0.461. For the same compound, the relative viability (A-427; first compound 0.006325 µM) was 0.266, the relative viability (A-427; first compound 0.02 µM) was 0.222 and the relative viability (ChaGo-K-1; first compound 0.0002 µM) was 0.817. For the same compound, the relative viability (ChaGo-K-1; first compound 0.000632 µM) was 0.792, the relative viability (ChaGo-K-1; first compound 0.002 µM) was 0.578 and the relative viability (ChaGo-K-1; first compound 0.006325 µM) was 0.27. It also gave a relative viability (ChaGo-K-1; first compound 0.02 µM) of 0.161, a relative viability (EKVX; first compound 0.0002 µM) of 0.736 and a relative viability (EKVX; first compound 0.000632 µM) of 0.638. For the same compound, the relative viability (EKVX; first compound 0.002 µM) was 0.407, the relative viability (EKVX; first compound 0.006325 µM) was 0.249 and the relative viability (EKVX; first compound 0.02 µM) was 0.132. For the same compound, the relative viability (EMC-BAC-2; first compound 0.0002 µM) was 1.03, the relative viability (EMC-BAC-2; first compound 0.000632 µM) was 0.885 and the relative viability (EMC-BAC-2; first compound 0.002 µM) was 0.467. For the same compound, the relative viability (EMC-BAC-2; first compound 0.006325 µM) was 0.334, the relative viability (EMC-BAC-2; first compound 0.02 µM) was 0.369 and the relative viability (H3255; first compound 0.0002 µM) was 0.749. The relative viability (H3255; first compound 0.000632 µM) was 0.859, the relative viability (H3255; first compound 0.002 µM) was 0.446 and the relative viability (H3255; first compound 0.006325 µM) was 0.288. The relative viability (H3255; first compound 0.02 µM) was 0.288, the relative viability (HCC-366; first compound 0.0002 µM) was 0.206 and the relative viability (HCC-366; first compound 0.000632 µM) was 0.0949. It also gave a relative viability (HCC-366; first compound 0.002 µM) of 0.145, a relative viability (HCC-366; first compound 0.006325 µM) of 0.0384 and a relative viability (HCC-366; first compound 0.02 µM) of 0.0132. It also gave a relative viability (LK-2; first compound 0.0002 µM) of 0.337, a relative viability (LK-2; first compound 0.000632 µM) of 0.277 and a relative viability (LK-2; first compound 0.002 µM) of 0.113. It also gave a relative viability (LK-2; first compound 0.006325 µM) of 0.112, a relative viability (LK-2; first compound 0.02 µM) of 0.0712 and a relative viability (LOU-NH91; first compound 0.0002 µM) of 0.748. It also gave a relative viability (LOU-NH91; first compound 0.000632 µM) of 0.662, a relative viability (LOU-NH91; first compound 0.002 µM) of 0.509 and a relative viability (LOU-NH91; first compound 0.006325 µM) of 0.385. The relative viability (LOU-NH91; first compound 0.02 µM) was 0.342, the relative viability (NCI-H1666; first compound 0.0002 µM) was 0.692 and the relative viability (NCI-H1666; first compound 0.000632 µM) was 0.695. For the same compound, the relative viability (NCI-H1666; first compound 0.002 µM) was 0.521, the relative viability (NCI-H1666; first compound 0.006325 µM) was 0.465 and the relative viability (NCI-H1666; first compound 0.02 µM) was 0.359. It also gave a relative viability (NCI-H1734; first compound 0.0002 µM) of 0.449, a relative viability (NCI-H1734; first compound 0.000632 µM) of 0.384 and a relative viability (NCI-H1734; first compound 0.002 µM) of 0.199. It also gave a relative viability (NCI-H1734; first compound 0.006325 µM) of 0.222, a relative viability (NCI-H1734; first compound 0.02 µM) of 0.164 and a relative viability (NCI-H1755; first compound 0.0002 µM) of 0.488. For the same compound, the relative viability (NCI-H1755; first compound 0.000632 µM) was 0.396, the relative viability (NCI-H1755; first compound 0.002 µM) was 0.324 and the relative viability (NCI-H1755; first compound 0.006325 µM) was 0.401. It also gave a relative viability (NCI-H1755; first compound 0.02 µM) of 0.352, a relative viability (NCI-H1975; first compound 0.0002 µM) of 0.721 and a relative viability (NCI-H1975; first compound 0.000632 µM) of 0.601. It also gave a relative viability (NCI-H1975; first compound 0.002 µM) of 0.389, a relative viability (NCI-H1975; first compound 0.006325 µM) of 0.24 and a relative viability (NCI-H1975; first compound 0.02 µM) of 0.169. It also gave a relative viability (NCI-H2170; first compound 0.0002 µM) of 0.895, a relative viability (NCI-H2170; first compound 0.000632 µM) of 0.722 and a relative viability (NCI-H2170; first compound 0.002 µM) of 0.581. The relative viability (NCI-H2170; first compound 0.02 µM) was 0.131, the relative viability (NCI-H23; first compound 0.0002 µM) was 0.241 and the relative viability (NCI-H23; first compound 0.000632 µM) was 0.246. It also gave a relative viability (NCI-H23; first compound 0.002 µM) of 0.136, a relative viability (NCI-H23; first compound 0.006325 µM) of 0.148 and a relative viability (NCI-H23; first compound 0.02 µM) of 0.103. The relative viability (NCI-H441; first compound 0.0002 µM) was 1.06, the relative viability (NCI-H441; first compound 0.000632 µM) was 1.15 and the relative viability (NCI-H441; first compound 0.002 µM) was 0.263. It also gave a relative viability (NCI-H441; first compound 0.006325 µM) of 0.221, a relative viability (NCI-H441; first compound 0.02 µM) of 0.167 and a relative viability (NCI-H596; first compound 0.0002 µM) of 1.07. For the same compound, the relative viability (NCI-H596; first compound 0.000632 µM) was 0.934, the relative viability (NCI-H596; first compound 0.002 µM) was 1 and the relative viability (NCI-H596; first compound 0.006325 µM) was 0.581. It also gave a relative viability (NCI-H596; first compound 0.02 µM) of 0.397, a relative viability (PC-3 [JPC-3]; first compound 0.0002 µM) of 0.761 and a relative viability (PC-3 [JPC-3]; first compound 0.000632 µM) of 0.69. The relative viability (PC-3 [JPC-3]; first compound 0.002 µM) was 0.441, the relative viability (PC-3 [JPC-3]; first compound 0.006325 µM) was 0.267 and the relative viability (PC-3 [JPC-3]; first compound 0.02 µM) was 0.169. For the same compound, the relative viability (SW 900; first compound 0.0002 µM) was 0.452, the relative viability (SW 900; first compound 0.000632 µM) was 0.234 and the relative viability (SW 900; first compound 0.002 µM) was 0.287. It also gave a relative viability (SW 900; first compound 0.006325 µM) of 0.235 and a relative viability (SW 900; first compound 0.02 µM) of 0.161.
